The source of these data is patent US4605673A, “7H-dibenzo(a,c,)cyclohepten-5-one-(7) derivatives” (Warner-Lambert Company, priority 1982, dated 1986).

Counter-ions that a name gives are not always drawn. Like-named read-outs stand apart in the source and are kept apart here.

A short description of series [1]: Toxicity (LD50). As to conditions: in vivo.
Series [2] relates to Reserpine-induced hypothermia. Nature of the series: (A) Reserpine-induced hypothermia in mice (antidepressive action). It counts as in vivo. As to conditions: Mus musculus, read-out: Minimal dosage which leads to normalization of body temperature (A). An excerpt: The minimal dosage is given which leads to normalization of body temperature measured rectally.
Series [3] deals with spontaneous motility. Nature of the series: (C) Locomotive activity (spontaneous motility), photoelectric systems. The series is classed as in vivo. Particulars: mice; for Spontaneous motility (C), M = methaqualone: 40 m/g i.g. How it is done:
(C) The locomotive activity reflects the stimulating or depressive effects on the C.N. system. The spontaneous motility (impulses per minute) was measured in mice by means of photoelectric systems according to Irwin (Rev. Can. Biol. 20, 239 (1961). K in the margin=control, (twice), M=methaqualone (40 m/g i.g.) and S=substance.

Series [4] concerns hexobarbital sleeping period. As to the kind of experiment: (D) Hexobarbital sleeping period (central sedating or stimulating effects). The series is classed as in vivo. As to conditions: mice, 82.5 mg/kg hexobarbital IV. How it is done: (D) The lengthening of the sleeping period is a common in vivo method for the determination of central sedating or stimulating effects. The test animals are mice subsequent to intravenous (IV) injection with 82.5 mg/kg hexobarbital. The influence on the sleeping period under the trial substance is given in % for control purposes.

Series [5] can be described thus: (E) Anticholinergic action measured as mydriasis. It counts as in vivo, mice. As to conditions: mouse, in vivo, po. From the text:
(§1) (E) Anticholinergic action measured as mydriasis (mice).

In series [6] the test system is blood-pressure effect of noradrenaline and adrenaline. Nature of the series: (F) Autonomous test model after IV catecholamine administration (potentiation of blood-pressure effect of noradrenaline and adrenaline). The series is classed as in vivo, dogs. As to conditions: for Potentiation of catecholamine blood-pressure effect (F): dogs, result in words. From the text: (F) Autonomous test model in dogs after IV catecholamine administration.

Series [7] relates to mydriasis. Nature of the series: (E) Anticholinergic action measured as mydriasis. It counts as in vivo, mice. Particulars: mice.
From the text: as §1

Series [8] relates to gastric secretion. As to the kind of experiment: Shay preparation, gastric secretion. The series is classed as in vivo. As to conditions: po.
The mark [9] stands for this setting: 10 mg/kg s.c., control K 12 (4A), 13 (4B).

For orientation: LD50 means the dose at which mortality reaches 50%. Lower therefore signals greater toxicity. A word on the ED50: it is the dose that gives a 50% effect, or the effect in half of the subjects. As to `CN(C)CCC=C1c2ccccc2CCc2ccccc21` [Amitryptyline, reference compound], the LD50 turned out to be 200 mg/kg in series [1] (po, i.g.) and 100 mg/kg in series [1] (sc). In series [2] (sc), the minimal effective dose worked out at 5 mg/kg. The “Spontaneous motility (C), S = substance” value in series [3] (5 mg/kg s.c., control K 17) is listed as 4 impulses per minute. The “Influence on the sleeping period (D)” value in series [4] (5 mg/kg s.c.) is reported as “+103%”. Further, the ED50 in series [5] was determined as 23 mg/kg; in series [6] (Canis lupus familiaris, iv, read-out: Potentiation of catecholamine blood-pressure effect ED50 (F)), 1 mg/kg.

One may read the inhibition as the share of the control response that was lost under treatment. Turning to `CCN(CC)CCOc1cc(=O)c2ccccc2c2ccccc12` [Example 1, 5-(2-Diethylaminoethoxy)-7H-dibenzo(a,c)cyclohepten-5-one(7).hydrochloride], in series [1] (po, i.g.), the LD50 was 300 mg/kg. Besides, the minimal effective dose is 20 mg/kg in series [2] (po, i.g.) and 5 mg/kg in series [2] (sc). Further, in series [3] (5 mg/kg s.c., control K 17), the “Spontaneous motility (C), S = substance” value was 20 impulses per minute. In addition, the “Influence on the sleeping period (D)” value in series [4] (5 mg/kg s.c.) is on record as -42%. In series [7] (up to 75 mg/kg s.c.), the “Anticholinergic action (mydriasis) (E)” value was “no effect”. Moreover, the “Potentiation of catecholamine blood-pressure effect (F)” value (shortened to “Potentiation”) in series [6] is reported as “no effect”. In series [8] (Shay preparation, 25 mg/kg i.g.), 25 mg/kg produced 56% inhibition.

`CN(C)CCCc1cc(=O)c2ccccc2c2ccccc12` [Example 4A, 5-(3-Dimethylaminopropyl)-7H-dibenzo(a,c)cyclohepten-5-one(7)] came in with an LD50 in series [1] (po, i.g.) of 200 mg/kg. In addition, the minimal effective dose in series [2] (po, i.g.) was found to be 20 mg/kg; in series [2] (sc), 5 mg/kg. The “Spontaneous motility (C), S = substance” value in series [3] (setting [9]) came to 12 impulses per minute. Besides, in series [7] (up to 75 mg/kg s.c.), the “Anticholinergic action (mydriasis) (E)” value is on record as “no effect”. In addition, the “Potentiation” value in series [6] is listed as “no effect”.

`CCN(CC)CCCc1cc(=O)c2ccccc2c2ccccc12` [Example 4B, 5-(3-Diethylaminopropyl)-7H-dibenzo(a,c)cyclohepten-5-one(7).oxalate] yielded an LD50 in series [1] (po, i.g.) of 200 mg/kg. For the same molecule, the minimal effective dose in series [2] (po, i.g.) was found to be 30 mg/kg; in series [2] (sc), 10 mg/kg. Further, in series [3] (setting [9]), the “Spontaneous motility (C), S = substance” value stood at 21 impulses per minute. In series [4] (10 mg/kg s.c.), the “Influence on the sleeping period (D)” value is “+11%”. In addition, the “Anticholinergic action (mydriasis) (E)” value in series [7] (up to 75 mg/kg s.c.) is on record as “no effect”. Moreover, in series [6], the “Potentiation” value is “no effect”.

As to `CNCCCc1cc(=O)c2ccccc2c2ccccc12` [Example 4C, 5-(3-methylaminopropyl)-7H-dibenzo(a,c)cyclohepten-5-one(7).oxalate], the LD50 in series [1] (po, i.g.) stood at 800 mg/kg. Moreover, in series [2] (po, i.g.), the minimal effective dose stood at 75 mg/kg. The “Spontaneous motility (C), S = substance” value in series [3] (150 mg/kg i.g., control K 15) was found to be 19 impulses per minute. Moreover, the “Anticholinergic action (mydriasis) (E)” value in series [7] (up to 200 mg/kg i.g.) is reported as “no effect”. Besides, the “Potentiation” value in series [6] was “no effect”.

For the molecule `Cc1ccccc1-n1c(C)nc2ccccc2c1=O` [M], the “Spontaneous motility (C), M = methaqualone” value was 2 impulses per minute in series [3] (Amitryptyline column, control K 20); 2 impulses per minute in series [3] (Example 1 column, control K 20); 3 impulses per minute in series [3] (Example 4A column, control K 16); 2 impulses per minute in series [3] (Example 4B column, control K 20); 6 impulses per minute in series [3] (Example 4C column, control K 19).

With `CN/C(=N/CCSCc1nc[nH]c1C)NC#N` [cimetidine, reference compound], the inhibition at 80 mg/kg in series [8] (read-out: Inhibition of gastric secretion) was determined as 45%.
